Assay results as given in ChEMBL document CHEMBL1201862, “PubChem BioAssay data set” (2004).
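96-well plates; 48 h exposure; 5 concentrations. Endpoints by linear interpolation between flanking doses. Not reached: highest tested concentration assigned. GI50 is the concentration that inhibits growth by half.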 The source made the active and inactive calls. No stated cut-off is given here; in the data, active = GI50 up to about 1.1 µM and inactive = higher.

Experiments:
Assay in all cases: NCI tumour cell line growth inhibition, 48 h
OVCAR-4 = tested on: OVCAR-4
SF-295 = tested on: SF-295
KM12 = tested on: KM12
M14 = tested on: M14
MDA-MB-231 = tested on: MDA-MB-231
A498 = tested on: A498
HT-29 = tested on: HT-29
HCC 2998 = tested on: HCC 2998
SN12C = tested on: SN12C
UACC-62 = tested on: UACC-62
SK-MEL-5 = tested on: SK-MEL-5
NCI-H522 = tested on: NCI-H522
NCI-H23 = tested on: NCI-H23
DU-145 = tested on: DU-145
CAKI-1 = tested on: CAKI-1
Hs-578T = tested on: Hs-578T

| Compound | GI50 (OVCAR-4) | GI50 (SF-295) | GI50 (KM12) | GI50 (M14) | GI50 (MDA-MB-231) | GI50 (A498) | GI50 (HT-29) | GI50 (HCC 2998) | GI50 (SN12C) | GI50 (UACC-62) | GI50 (SK-MEL-5) | GI50 (NCI-H522) | GI50 (NCI-H23) | GI50 (DU-145) | GI50 (CAKI-1) | GI50 (Hs-578T) |
| --- | --- | --- | --- | --- | --- | --- | --- | --- | --- | --- | --- | --- | --- | --- | --- | --- |
| CC(=O)OCCN1c2ccccc2Sc2cnccc21 | > 10 µM (inactive) | > 10 µM (inactive) | 0.067 µM (active) | > 10 µM (inactive) | > 10 µM (inactive) | > 10 µM (inactive) | > 10 µM (inactive) | > 10 µM (inactive) | > 10 µM (inactive) | > 10 µM (inactive) | > 10 µM (inactive) | > 10 µM (inactive) | > 10 µM (inactive) | > 10 µM (inactive) | > 10 µM (inactive) |  |
| Cc1nc(=O)[nH]c2s/c(=N/C3CCCCC3)n(C3CCCCC3)c(=O)c12 | > 100 µM (inactive) | > 100 µM (inactive) | > 100 µM (inactive) | > 100 µM (inactive) | > 100 µM (inactive) | > 100 µM (inactive) | > 100 µM (inactive) | > 100 µM (inactive) | > 100 µM (inactive) | > 100 µM (inactive) | > 100 µM (inactive) | > 100 µM (inactive) | > 100 µM (inactive) | > 100 µM (inactive) | > 100 µM (inactive) |  |
| NCCCc1nonc1C(=O)O | > 100 µM (inactive) | > 100 µM (inactive) | > 100 µM (inactive) | > 100 µM (inactive) | > 100 µM (inactive) |  | > 100 µM (inactive) | > 100 µM (inactive) | > 100 µM (inactive) | > 100 µM (inactive) | > 100 µM (inactive) |  | > 100 µM (inactive) | > 100 µM (inactive) | > 100 µM (inactive) | > 100 µM (inactive) |
| N#CC(C#N)=Cc1ccc2c(c1)OC(Cl)O2 (centres undefined) | 42.2 µM (inactive) | 19.3 µM (inactive) | 20.4 µM (inactive) | 21.4 µM (inactive) |  |  | 23.8 µM (inactive) |  | 24.9 µM (inactive) | 22.5 µM (inactive) | 19.1 µM (inactive) | > 10 µM (inactive) | 31.1 µM (inactive) | 27.7 µM (inactive) | > 100 µM (inactive) |  |
| CCC(=O)C(C(C)/C=C/CCSc1ccccc1)C(O)CCCCCC(=O)OC (centres undefined) | > 100 µM (inactive) | > 100 µM (inactive) | 40.6 µM (inactive) | > 100 µM (inactive) | > 100 µM (inactive) |  | > 100 µM (inactive) | > 100 µM (inactive) | > 100 µM (inactive) | 71.9 µM (inactive) | 36.8 µM (inactive) | 89.3 µM (inactive) | 77.3 µM (inactive) | > 100 µM (inactive) | 67.5 µM (inactive) |  |
| Cc1cn(C2CC(ON3C(=O)c4ccccc4C3=O)C(CO)O2)c(=O)[nH]c1=O (centres undefined) | > 10 µM (inactive) | > 10 µM (inactive) | > 10 µM (inactive) | > 10 µM (inactive) |  |  | > 10 µM (inactive) | > 10 µM (inactive) | > 10 µM (inactive) | > 10 µM (inactive) |  | > 10 µM (inactive) | > 10 µM (inactive) | > 10 µM (inactive) |  | > 10 µM (inactive) |
| CC(C)(CN)SCc1ccccc1 | > 100 µM (inactive) | > 100 µM (inactive) | > 100 µM (inactive) | > 100 µM (inactive) | > 100 µM (inactive) | > 100 µM (inactive) | > 100 µM (inactive) |  | > 100 µM (inactive) | > 100 µM (inactive) | > 100 µM (inactive) | > 100 µM (inactive) |  | > 100 µM (inactive) | > 100 µM (inactive) | > 100 µM (inactive) |
| Cc1ccc(C(=O)N/N=C(\N=N\c2ccccc2)c2ccc(N(C)C)cc2)cc1 | 16.3 µM (inactive) | > 100 µM (inactive) | 71.1 µM (inactive) | > 100 µM (inactive) | > 100 µM (inactive) |  | > 100 µM (inactive) | 90.8 µM (inactive) | > 100 µM (inactive) | 67.8 µM (inactive) | 92 µM (inactive) | 65.8 µM (inactive) | > 100 µM (inactive) | 20.9 µM (inactive) | 44.5 µM (inactive) |  |
| O=c1c2cc(S(=O)(=O)Nc3ccccc3Cl)ccc2ncn1NS(=O)(=O)c1ccc(Br)cc1 | > 37.5 µM (inactive) | > 37.5 µM (inactive) | > 37.5 µM (inactive) | > 37.5 µM (inactive) | > 37.5 µM (inactive) |  | > 37.5 µM (inactive) | > 37.5 µM (inactive) | > 37.5 µM (inactive) | > 37.5 µM (inactive) |  | > 37.5 µM (inactive) | > 37.5 µM (inactive) | > 37.5 µM (inactive) | > 37.5 µM (inactive) | > 37.5 µM (inactive) |
| CC1(C)C2CCC1(C)C(N/C(=C(/C(Cl)=C(Cl)Cl)[N+](=O)[O-])n1nnc3ccccc31)C2 (centres undefined) | 24.1 µM (inactive) | 24.3 µM (inactive) | 21.8 µM (inactive) | 37.7 µM (inactive) | 22.5 µM (inactive) | 19.9 µM (inactive) | 39 µM (inactive) | 40.6 µM (inactive) | 41.8 µM (inactive) | 20 µM (inactive) |  |  | 22.4 µM (inactive) |  | 18.6 µM (inactive) | 17.3 µM (inactive) |
| N=C(N)C1CN(CC=O)C(=O)NC1=O (centres undefined) | > 100 µM (inactive) | > 100 µM (inactive) |  | > 100 µM (inactive) | > 100 µM (inactive) | > 100 µM (inactive) | > 100 µM (inactive) | > 100 µM (inactive) | > 100 µM (inactive) | > 100 µM (inactive) | > 100 µM (inactive) |  | > 100 µM (inactive) | > 100 µM (inactive) |  |  |
| S=C(Nc1ccc(/N=N/c2ccccc2)cc1)SCc1ccccc1 | 16.1 µM (inactive) | 17.9 µM (inactive) | 16.2 µM (inactive) | 17.3 µM (inactive) | 14.7 µM (inactive) | 19.9 µM (inactive) | 23.6 µM (inactive) |  | 15.7 µM (inactive) | 17.8 µM (inactive) | 15.7 µM (inactive) | 16.9 µM (inactive) | 16.4 µM (inactive) | 15.9 µM (inactive) | 16.5 µM (inactive) | 22.2 µM (inactive) |
| CN1C(=O)CC2CCC(=O)N2c2cccnc21 (centres undefined) | > 100 µM (inactive) | > 100 µM (inactive) | > 100 µM (inactive) | > 100 µM (inactive) | > 100 µM (inactive) |  | > 100 µM (inactive) | > 100 µM (inactive) | > 100 µM (inactive) | 75.5 µM (inactive) | > 100 µM (inactive) | > 100 µM (inactive) | > 100 µM (inactive) | > 100 µM (inactive) | > 100 µM (inactive) | > 100 µM (inactive) |
| CC(=O)C1C(=O)C(=O)N(c2cccc([N+](=O)[O-])c2)C1=O (centres undefined) | > 100 µM (inactive) | > 100 µM (inactive) | > 100 µM (inactive) | > 100 µM (inactive) | > 100 µM (inactive) |  | > 100 µM (inactive) | > 100 µM (inactive) | > 100 µM (inactive) | > 100 µM (inactive) | > 100 µM (inactive) | > 100 µM (inactive) | > 100 µM (inactive) | > 100 µM (inactive) | > 100 µM (inactive) | > 100 µM (inactive) |
